Laboratory results taken from patent US6835382B2, “Ii peptide therapeutics to enhance antigen presentation” (University of Massachusetts, priority 1996, dated 2004).

T1: murine E^d MHC class II allele (Mus musculus, UniProt P01904+P01915)
T1 sequence (P01904 26-255): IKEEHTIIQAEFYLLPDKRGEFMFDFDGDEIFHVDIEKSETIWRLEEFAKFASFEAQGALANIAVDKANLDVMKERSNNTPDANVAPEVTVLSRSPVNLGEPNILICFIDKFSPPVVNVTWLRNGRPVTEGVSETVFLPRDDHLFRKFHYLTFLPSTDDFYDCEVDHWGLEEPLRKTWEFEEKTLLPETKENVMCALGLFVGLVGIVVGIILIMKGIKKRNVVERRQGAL
T1 sequence (P01915 27-264 limits assumed): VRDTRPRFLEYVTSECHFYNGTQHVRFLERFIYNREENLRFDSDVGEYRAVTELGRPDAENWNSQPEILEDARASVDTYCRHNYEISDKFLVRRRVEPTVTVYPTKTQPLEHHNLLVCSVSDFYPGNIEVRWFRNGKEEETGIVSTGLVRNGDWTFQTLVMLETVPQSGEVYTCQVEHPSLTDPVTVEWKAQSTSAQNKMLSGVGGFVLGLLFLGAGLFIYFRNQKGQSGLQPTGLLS


Columns and labels:
[1] = tested on: murine E^k MHC class II allele; assay: simultaneous assay, E^k allele (CH27 APC, TPc9.1 T hybridoma, THMCC82-103 or PGCC81-104); format: cell-based; details: Table 1, 0.075 μM THMCC82-103, supernatant 1:2
Description: (§1) Examples 1-4 (Tables 1-18) will be briefly considered in order to establish the concept of tolerance discussed above. These examples describe experimental results observed in the so-called “simultaneous” assay. In the simultaneous assay four principle components are cultured together for a 24 hour period. The components of this culture, which are added simultaneously, are: (a) an antigenic peptide characterized by the ability to bind specifically into the antigenic peptide binding groove of an MHC class II molecule, (b) mitomycin C-treated, MHC class II-positive antigen presenting cells (APC) bearing the MHC class II allele required for binding of the specific antigenic peptide, and presentation of the specific antigenic peptide to the antigenic peptide-specific T cell hybridoma, (c) an effector compound of the present invention, and (d) an MHC class II allele-restricted T cell hybridoma specific for the antigenic peptide and the MHC class II allele restricting its presentation. Following incubation of this primary culture, an aliquot of its supernatant is transferred into a second culture well for incubation with an interleukin-dependent lymphoblastoid cell line. The degree of stimulation of that second, indicator cell by the interleukins which had been released from the activated T cell hybridoma in the primary culture is measured by quantitating tritiated thymidine deoxyribose {[^3H]TdR} uptake into the DNA of the HT-2 indicator cells of that second culture.
(§2) In the “simultaneous assay” the four components of the assay are cultured together for a 24 h period. The components of this primary culture, added at the same time or simultaneously, are: (a) the antigenic peptide, (b) mitomycin C-treated, MHC class II-positive antigen presenting cells (APC) with the MHC class II allele required for binding of the specific antigenic peptide and its presentation to the antigenic peptide-specific T cell hybridoma, (c) an AE101 series effector peptide, and (d) MHC class II allele-restricted T cell hybridoma specific for the antigenic peptide and the MHC class II allele restricting its presentation. At the end of the incubation of this primary culture, an aliquot of its supernatant is transferred into a second culture well for incubation with an interleukin-dependent lymphoblastoid cell line. The degree of stimulation of that second, indicator cell by the interleukins which had been released from the activated T cell hybridoma in the primary culture is measured by quantitating tritiated thymidine deoxyribose {[^3H]TdR} uptake into the DNA of the HT-2 indicator cells of that second culture.
(§3) For these various assays, the following antigenic peptides were used: HEL11-25, hen egg lysozyme 11-25, AMKRHGLDNYRGYSL(A^d) (SEQ ID NO:5); HEL46-61, hen egg lysozyme 46-61, NTDGSTDYGILQINSR(Ak) (SEQ ID NO:6); HEL106-116, hen egg lysozyme 106-116, NAWVAWRNRCK (E^d) (SEQ ID NO:7); PGCC81-104, pigeon cytochrome c 81-104, […] (Ek) (SEQ ID NO:8), and THMCC82-103, tobacco hornworm moth cytochrome c 82-103, […] (Ek) (SEQ ID NO:9). AE101 series peptides were obtained from commercial sources. In general, the purity and composition of each peptide was confirmed by HPLC separation and mass spectrometry. The native protein antigens were HEL, hen egg lysozyme, and PGCC, pigeon cytochrome C. They were obtained from commercial sources.
(§4) For the experiments of these Examples, several T cell hybridomas, which are specific for certain antigenic peptides, were used. The TPc9.1 T hybridoma is specific for pigeon cytochrome C 81-104 peptide presented on the murine class II MHC allele E^k. The TPc9.1 hybridoma responds heteroclitically to tobacco hornworm moth cytochrome c 82-103 on E^k. The 3A9 T hybridoma is specific for hen egg lysozyme 46-61 on A^k. The 9.30.B2 hybridoma is specific for hen egg lysozyme 11-25 on A^d, and the G28.C9 hybridoma is specific for hen egg lysozyme 106-116 on E^d. […]

[2] = molecular target: T1, murine E^d MHC class II allele; assay: simultaneous assay, E^d allele (A20 APC, G28.C9 T hybridoma, HEL106-116; HT-2 [3H]TdR readout); format: cell-based; design: The A20 and CH27 B cell lymphoma lines express H-2^d and H-2^k alleles, respectively; endogenous in cells; host or cells: A20 B cell lymphoma (mitomycin C-treated or paraformaldehyde-fixed); details: Table 1, 0.4 μM HEL106-116, supernatant 1:4
Description: as §1, §2, §3, §4

HLA-DR1 molecules [3] = assay: release of biotin-labeled hMBP(90-102) from HLA-DR1 without unlabeled antigenic peptide (assay I); format: binding, human; details: for Relative Release: Table 36, fraction of o.d. of positive control (PBS only = 1.0; negative control = 0.0)
HLA-DR1 molecules [4] = assay: release of biotin-labeled hMBP(90-102) from HLA-DR1 in the presence of unlabeled hMBP (assay II); format: binding, human
[5] = molecular target: soluble HLA-DR1 (HLA-DR alpha truncated after Asn192 with a C-terminal nine amino acid HA epitope tail; HLA-DR1 beta truncated after Lys198), made in Baculovirus-infected insect cells (human); assay: release ELISA: soluble HLA-DR1 tethered by 12CA5 and preloaded with biotin-hMBP(90-102); AE peptide 64 uM, 1 h 37 C, no unlabeled peptide; biotin still bound read by avidin-HRP (1.0 = PBS control, 0.0 = no DR1; low value = released)
[6] = molecular target: soluble HLA-DR1 (HLA-DR alpha truncated after Asn192 with a C-terminal nine amino acid HA epitope tail; HLA-DR1 beta truncated after Lys198), made in Baculovirus-infected insect cells (human); assay: loading ELISA: empty tethered HLA-DR1 with biotin-hMBP(90-102) 50 uM and AE peptide 64 uM, 1 h 37 C; biotin bound read by avidin-HRP
[7] = molecular target: soluble HLA-DR1 (HLA-DR alpha truncated after Asn192 with a C-terminal nine amino acid HA epitope tail; HLA-DR1 beta truncated after Lys198), made in Baculovirus-infected insect cells (human); assay: exchange ELISA: tethered HLA-DR1 preloaded with unlabeled hMBP(90-102) 50 uM, washed; AE peptide plus biotin-hMBP(90-102) 50 uM, 1 h 37 C; biotin bound as fraction of positive control (overnight loading)
[8] = AE peptide 16 μM (second value)

| Molecule | Times Baseline Response, E^k [1, 8] | Times Baseline Response, E^k ([1]; AE peptide 64 μM (first value)) | Times Baseline Response, E^d [2, 8] | Times Baseline Response, E^d ([2]; AE peptide 64 μM (first value)) | Relative Release (HLA-DR1 molecules [3]; AE101 series compound 64 μM) | Relative Release (fraction of positive control o.d.) [5] | also measured |
| --- | --- | --- | --- | --- | --- | --- | --- |
| RMKLPKSAKPVSQMR [AE102] | 0.8 | 1.0 | 4.2 | 13.3 |  |  |  |
| SAKPVSQMR [AE105] | 0.8 | 0.7 | 1.1 | 4.5 | 0.16 |  |  |
| YRMKLPKSAK [AE108] | 0.9 | 1.2 | 11.6 | 32.0 | 1.14 |  | Relative Release, Without unlabeled hMBP(90-102), 1 μM (HLA-DR1 molecules [3]; Table 37, AE101 series compound 1 μM, no unlabeled hMBP(90-102)): 0.52; Relative Release, Without unlabeled hMBP(90-102), 64 μM (HLA-DR1 molecules [3]; Table 37, AE101 series compound 64 μM, no unlabeled hMBP(90-102)): 0.31; Relative Release, With unlabeled hMBP(90-102), 1 μM (HLA-DR1 molecules [4]; Table 37, AE101 series compound 1 μM, unlabeled hMBP(90-102) 250 μM): 0.00; Relative Release, With unlabeled hMBP(90-102), 64 μM (HLA-DR1 molecules [4]; Table 37, AE101 series compound 64 μM, unlabeled hMBP(90-102) 250 μM): 0.14 |
| YRMKLPKSAKPVSQ [AE106] | 0.9 | 2.0 | 4.4 | 16.9 | −0.12 |  | release of hMBP(90-102) from HLA-DR1 (HLA-DR1 molecules [3]; AE peptide at 125 nM, additional experiments): completely release |
| unlabeled hMBP(90-102): human myelin basic protein (hMBP) peptide (90-102), antigenic peptide binding HLA-DR1, unlabeled (HLIRLFSRDAPGR) [reference compound] |  |  |  |  |  |  | release of biotin-labeled hMBP(90-102) (Relative Release) (HLA-DR1 molecules [4]; unlabeled hMBP(90-102) (250 μM) alone without AE101 series compounds): 0.81 |
| PKSAKPVSQMR [AE104] |  |  |  |  |  | 0.02 |  |
| YRMKLPKSAKPVSQ [AE106] |  |  |  |  |  | -0.12 |  |
| SAKPVSQMR [AE105] |  |  |  |  |  |  | Fraction of biotin-hMBP still bound (fraction of positive control o.d.) [5]: 0.16 |
| KLPKSAKPVSQMR [AE103] |  |  |  |  |  | 0.01 |  |
| Ac-LRMKLPKPP-NH2 [AE401] |  |  |  |  |  | 0.16 | Relative Enhancement (of biotin-hMBP(90-102) binding to empty HLA-DR1) (relative to no AE peptide = 1) [6]: 4.29; Relative Binding (of biotin-hMBP(90-102) to HLA-DR1) (fraction of positive control o.d.) [7]: 0.45 |
